Source: article PMC6946680, “Modulation of brain cation-Cl^− cotransport via the SPAK kinase inhibitor ZT-1a” (Nature Communications, 2020)
“And” between values parts separate entries of the source, which are not always exact repeats. Identical values can stand only once.

Key:
[1] = tested on: mouse primary cortical neurons; assay: Cell volume measurement (calcein-AM) under hyperosmotic stress, primary cortical neurons
NKCC1 = assay: 86Rb+ uptake assay for NKCC1 activity in HEK-293 cells; assay type: cell-based; parameters: key to 86Rb+ uptake: 86Rb+ uptake in CPM per mg protein; settings: for 86Rb+ uptake: Fig 3b, NKCC1 + Bum (0.1 mM), replicates, listed as Bum
Procedure: (§1) Thirty-six hours post transfection, cells were exposed for 30 min to either control isotonic conditions or hypotonic low [Cl^−] conditions (to activate the SPAK/OSR1 pathway), and then treated for an additional 30 min in the same conditions with the indicated ZT-1a concentrations in the presence of 1 mM ouabain and 0.1 mM bumetanide. Ten-minute ^86Rb^+ uptake values were quantified by scintillation counting, normalized per mg protein for each condition, and plotted for both isotonic and hypotonic conditions. ***p < 0.001; **p < 0.01; *p < 0.05; ns—nonsignificant [by one-way ANOVA with post hoc testing (n = 6, error bars represent the mean ± SEM)]. b ^86Rb^+ uptake assays in the presence of ZT-1a measure transport activity of NKCC1. […] Thirty-six hours post transfection, cells were exposed for 30 min to either control isotonic conditions or hypotonic low [Cl^−] conditions (to activate the SPAK/OSR1 pathway), and then treated in the same conditions for an additional 30 min with 10 µM ZT-1a or 0.1 mM bumetanide (Bum) in the presence of 1 mM ouabain (Na^+/K^+-ATPase inhibitor). ^86Rb^+ uptake was allowed to proceed for 10 min and was then quantified by scintillation counting. ^86Rb^+ uptake CPMs were normalized per mg protein and plotted for both isotonic and hypotonic conditions. […] Thirty-six hours post transfection, cells were exposed for 30 min to either control isotonic conditions or hypotonic low [Cl^−] conditions (to activate the SPAK/OSR1 pathway), and then treated for an additional 30 min in the same conditions with the indicated ZT-1a concentrations in the presence of 1 mM ouabain. Ten-minute ^86Rb^+ uptake values were quantified by scintillation counting, normalized per mg protein for each condition, and plotted for both isotonic and hypotonic conditions. ***p < 0.001; **p < 0.01; *p < 0.05; ns—nonsignificant [by one-way ANOVA with post hoc testing (n = 6, error bars represent the mean ± SEM)].
(§2) This stimulating medium was then removed and replaced with isotonic medium containing inhibitors plus 2 µCi/ml ^86Rb^+. After incubation for 10 min at 37 °C, cells were rapidly washed three times with the respective ice-cold nonradioactive medium. Washed cells were lysed in 300 µl of ice-cold lysis buffer and ^86Rb^+ uptake was quantitated by liquid scintillation counting (PerkinElmer).

human fibroblast cells = assay: Cell volume measurement (calcein-AM) under hyperosmotic stress, human fibroblasts; settings: hypertonic 515 mOsm; BMT or ZT-1a
HEK-293 cells = assay: 86Rb+ uptake assay in empty-vector-transfected HEK-293 cells; assay type: cell-based, human; parameters: key: 86Rb+ uptake in CPM per mg protein; settings: Fig 3b, Empty V + Bum (0.1 mM), ouabain, replicates, listed as Bum
Procedure: as §1, §2

SPAK–WNK1 interaction = tested on: T1, SPAK–WNK1 interaction; assay: SPAK antibody pull-down / co-immunoprecipitation of WNK1 from HEK-293 cell lysates; assay type: binding, human; settings: Fig S6
T1 construct: endogenous in cells; host or cells: HEK-293
Procedure: Supplemental Fig. 6 Evidence that SPAK associates with WNK1, and interaction is disrupted by ZT-1a and its analogs. Non-transfected HEK293 cell lysates were incubated with the RFQV peptide […]
ZT-1a for 30 min on ice and subjected to SPAK antibody immunoprecipitation. Immunoprecipitates were subjected to immunoblot probed with antibody to total WNK1 and antibody to total SPAK. Left panels: representative immunoblots. Right panels, summarized data quantitated by densitometry (n=3, means ± SEM; **,

SMILES: CCCCNc1cc(C(=O)O)cc(S(N)(=O)=O)c1Oc1ccccc1 [bumetanide, reference compound]
- Cell water (relative change) ([1]; Fig 5b trace, Time 1.00403): 0.9843 relative change
- Cell water (relative change) ([1]; Fig 5b trace, Time 2.00427): 1.007 relative change
- Cell water (relative change) ([1]; Fig 5b trace, Time 3.00425): 1.002 relative change
- Cell water (relative change) ([1]; Fig 5b trace, Time 4.00423): 1.004 relative change
- Cell water (relative change) ([1]; Fig 5b trace, Time 5.0042): 1.002 relative change
- Cell water (relative change) ([1]; Fig 5b trace, Time 6.00445): 0.7352 relative change
- Cell water (relative change) ([1]; Fig 5b trace, Time 7.00442): 0.6913 relative change
- Cell water (relative change) ([1]; Fig 5b trace, Time 8.00435): 0.6745 relative change
- Cell water (relative change) ([1]; Fig 5b trace, Time 9.00452): 0.6038 relative change
- Cell water (relative change) ([1]; Fig 5b trace, Time 10.0046): 0.5839 relative change
- Cell water (relative change) ([1]; Fig 5b trace, Time 11.0045): 0.5893 relative change
- Cell water (relative change) ([1]; Fig 5b trace, Time 12.0045): 0.5422 relative change
- Cell water (relative change) ([1]; Fig 5b trace, Time 13.0045): 0.523 relative change
- Cell water (relative change) ([1]; Fig 5b trace, Time 14.0045): 0.4977 relative change
- Cell water (relative change) ([1]; Fig 5b trace, Time 15.0047): 0.5231 relative change
- Cell water (relative change) ([1]; Fig 5b trace, Time 16.0047): 0.4947 relative change
- Cell water (relative change) ([1]; Fig 5b trace, Time 17.0047): 0.4924 relative change
- Cell water (relative change) ([1]; Fig 5b trace, Time 18.0047): 0.4545 relative change
- Cell water (relative change) ([1]; Fig 5b trace, Time 19.0049): 0.4799 relative change
- Cell water (relative change) ([1]; Fig 5b trace, Time 20.0049): 0.4586 relative change
- Cell water (relative change) ([1]; Fig 5b trace, Time 21.0048): 0.4488 relative change
- Cell water (relative change) ([1]; Fig 5b trace, Time 22.0048): 0.4846 relative change
- Cell water (relative change) ([1]; Fig 5b trace, Time 23.005): 0.4766 relative change
- Cell water (relative change) ([1]; Fig 5b trace, Time 24.0048): 0.4819 relative change
- Cell water (relative change) ([1]; Fig 5b trace, Time 25.005): 0.4751 relative change
- Cell water (relative change) ([1]; Fig 5b trace, Time 26.0053): 0.6008 relative change
- Cell water (relative change) ([1]; Fig 5b trace, Time 27.005): 0.6725 relative change
- Cell water (relative change) ([1]; Fig 5b trace, Time 28.005): 0.7341 relative change
- Cell water (relative change) ([1]; Fig 5b trace, Time 29.0051): 0.8379 relative change
- Cell water (relative change) ([1]; Fig 5b trace, Time 30.005): 0.9275 relative change
- Cell water (relative change) ([1]; Fig 5b trace, Time 31.005): 0.981 relative change
- Cell water (relative change) ([1]; Fig 5b trace, Time 32.005): 1.048 relative change
- Cell water (relative change) ([1]; Fig 5b trace, Time 33.0052): 1.114 relative change
- Cell water (relative change) ([1]; Fig 5b trace, Time 34.0052): 1.157 relative change
- Cell water (relative change) ([1]; Fig 5b trace, Time 35.0052): 1.203 relative change
- Cell water (relative change) ([1]; Time 1.0036): 0.9714
- Cell water (relative change) ([1]; Time 2.0038): 1.0042
- Cell water (relative change) ([1]; Time 3.0038): 1.0139
- Cell water (relative change) ([1]; Time 4.0037): 0.9906
- Cell water (relative change) ([1]; Time 5.0037): 1.0199
- Cell water (relative change) ([1]; Time 6.0037): 0.4476
- Cell water (relative change) ([1]; Time 7.0039): 0.4233
- Cell water (relative change) ([1]; Time 8.0040): 0.4625
- Cell water (relative change) ([1]; Time 9.0042): 0.4683
- Cell water (relative change) ([1]; Time 10.0039): 0.4401
- Cell water (relative change) ([1]; Time 11.0039): 0.4457
- Cell water (relative change) ([1]; Time 12.0039): 0.4507
- Cell water (relative change) ([1]; Time 13.0041): 0.4223
- Cell water (relative change) ([1]; Time 14.0041): 0.4334
- Cell water (relative change) ([1]; Time 15.0040): 0.4490
- Cell water (relative change) ([1]; Time 16.0040): 0.4184
- Cell water (relative change) ([1]; Time 17.0040): 0.3961
- Cell water (relative change) ([1]; Time 18.0045): 0.4241
- Cell water (relative change) ([1]; Time 19.0042): 0.4174
- Cell water (relative change) ([1]; Time 20.0042): 0.4139
- Cell water (relative change) ([1]; Time 21.0042): 0.4233
- Cell water (relative change) ([1]; Time 22.0041): 0.4177
- Cell water (relative change) ([1]; Time 23.0044): 0.4195
- Cell water (relative change) ([1]; Time 24.0044): 0.4281
- Cell water (relative change) ([1]; Time 25.0043): 0.4058
- Cell water (relative change) ([1]; Time 26.0043): 0.5463
- Cell water (relative change) ([1]; Time 27.0043): 0.6294
- Cell water (relative change) ([1]; Time 28.0045): 0.7254
- Cell water (relative change) ([1]; Time 29.0044): 0.8393
- Cell water (relative change) ([1]; Time 30.0044): 0.8966
- Cell water (relative change) ([1]; Time 31.0046): 1.0008
- Cell water (relative change) ([1]; Time 32.0046): 1.0678
- Cell water (relative change) ([1]; Time 33.0046): 1.1243
- Cell water (relative change) ([1]; Time 34.0045): 1.1834
- Cell water (relative change) ([1]; Time 35.0045): 1.2456
- regulatory volume increase (RVI) response of primary cortical neurons ([1]; hyperosmotic stress 370 mOsm, ZT-1a 3 μM, BMT 10 μM): no RVI response
- cell shrinkage of primary cortical neurons ([1]; hypertonic 370 mOsm/kg H2O, earlier manuscript version quoted in peer-review file): 86%
- initial rate of cell shrinkage ([1]; hypertonic stress, earlier manuscript version quoted in peer-review file): 45 ± 4 % vol/min
- neurons exhibiting RVI / cells analysed ([1]; hypertonicity-mediated osmotic shrinkage, three cultures): 0/46
- K+ flux of cells transfected with empty vector or NKCC1 wt cDNA (NKCC1; 0.1 mM bumetanide, isotonic or hypotonic low Cl−): significantly decreased K^+ flux
- 86Rb+ uptake (NKCC1; Hypotonic low Cl-): 9502.3 and 11310.4 and 9641.4 and 10421.5 and 10765.4 and 9047.7
- 86Rb+ uptake (NKCC1; Isotonic control): 1674.6 and 1506.3 and 1758.1 and 1840.4 and 1694.7 and 1729.5
- regulatory volume increase (RVI) in human fibroblast cells (human fibroblast cells): absence of RVI
- 86Rb+ uptake (HEK-293 cells; Hypotonic low Cl-): 1107.6 and 1237.8 and 1137.4 and 1021.4 and 1200.9 and 1076.2
- 86Rb+ uptake (HEK-293 cells; Isotonic control): 803.5 and 942.1 and 914.8 and 786.4 and 978.4 and 901.5

SMILES: Cc1cc(C(C#N)c2ccc(Cl)cc2)c(Cl)cc1NC(=O)c1cc(I)cc(I)c1O (stereo not drawn) [Closanel]
- WNK1 co-immunoprecipitated with SPAK (band quantification) (SPAK–WNK1 interaction; 10 uM): 0.416 and 0.33 and 0.3682 and 0.389
- WNK1 co-immunoprecipitated with SPAK (band quantification) (SPAK–WNK1 interaction; 30 uM): 0.353 and 0.208 and 0.256 and 0.231
- WNK1 co-immunoprecipitated with SPAK (band quantification) (SPAK–WNK1 interaction; 100 uM): 0.179 and 0.139 and 0.1611 and 0.153
- WNK1 co-immunoprecipitated with SPAK (band quantification) (SPAK–WNK1 interaction; 1000 uM): 0.036 and 0.031 and 0.0232 and 0.027
